Assay results taken from patent US11999769B2, “Method for isolating and purifying bacteriocin against drug-resistant Staphylococcus aureus” (Zhejiang Gongshang University, priority 2022, dated 2024).

Test system: S. aureus D48
Experiment: effect on membrane potential difference, DiSC2(5) fluorescent probe
Assay type: cell-based, Staphylococcus aureus
Conditions: bacteriocin 1×MIC; Triton X-100 5% solution as positive control; scanning time 15 min
Protocol: S. aureus D48 cells were prepared by the same method as that in Example 3, washed with a 5 mM fluorescent leakage buffer and resuspended to 5 mL to obtain a bacterial suspension. A fluorescent probe DiSC2(5) was set to have an excitation wavelength of 650 nm and an emission wavelength of 670 nm. The scanning interval was set as Ex slit: 5 nm, Em slit: 5 nm, and the scanning time was 15 min. 2 mL of the fluorescent leakage buffer, 20 μL of the bacterial suspension, and 3 μL of 0.1 mM probe DiSC2(5) were added to a fluorescence cuvette, and mixed uniformly for detection. After the fluorescence response value became stable, the L. rhamnosus ZFM216 bacteriocin solution with a final concentration of 1×MIC was quickly added in the experimental group, and the same volume of fluorescence leakage buffer and 5% Triton X-100 solution were added to the control groups respectively.
Note: The preparation method of the fluorescent leakage buffer is: 0.7455 g of potassium chloride and 0.2463 g of a magnesium sulfate heptahydrate solution are accurately weighed, 22.5 mL of a 20% glucose solution and 10 mL of a phosphate buffer solution are measured, the volume is diluted to 100 mL with ultrapure water, the pH is adjusted to 7, and the prepared fluorescent leakage buffer is stored at 4° C. for later use.

## Triton X-100 [TritonX-100]
  fluorescence intensity of S. aureus D48 bacterial suspension (DiSC2(5)): rapidly increased to the highest value
